According to paper PMC3493468 (Chembiochem : a European journal of chemical biology, 2011):
Each block holds one compound with its values, some of them ahead of it. Peptide text beside a SMILES is read from it. * marks the point of attachment. Palmitoyl = CCCCCCCCCCCCCCCC(=O)*

Key:
SMO [1] = settings: cited from earlier work
SMO [2] = assay: Inhibition of SMO function / Hedgehog pathway; type: cell-based
[3] = system: IGF-1 induced activity of AKT; assay: IGF-1-induced AKT activation; type: cell-based; settings: MCF-7 cells, compound 1 hour, then IGF-1 25 ng/ml for 20 min; Figure 5
[4] = Biodistribution of 3H-labeled lipopeptide; type: in vivo, mice; settings: subcutaneous, topical, peritoneal or oral administration; Supplementary Figure S6

Compound: Ac-(ε-Pal)-KLTYAWHTSFKAL-NH2 [SMOi2-43]
in vitro activity as inhibitor of the Hedgehog pathway (SMO [1]): potent inhibitor

Compound: Ac-LTYAWHTSFKAL-NH2 [SMOi2-9]
inhibition of SMO function (SMO [2]): inactive

Compound: CCCCCCCCCCCCCCCC(=O)N[C@@H](CCCNC(=N)N)C(=O)N[C@@H](CC(N)=O)C(=O)N[C@@H](CC(N)=O)C(=O)N[C@@H](CO)C(=O)N[C@@H](CCCNC(=N)N)C(=O)N[C@@H](CC(C)C)C(=O)NCC(=O)N[C@@H](CC(N)=O)C(=O)NCC(=O)N[C@H](C(=O)N[C@@H](CC(C)C)C(=O)N[C@@H](Cc1ccc(O)cc1)C(N)=O)C(C)C [Peptide 16] (Palmitoyl-RNNSRLGNGVLY-NH2)
inhibition of IGF-1 induced activity of AKT [3]: inhibited IGF-1 induced activity of AKT in a dose-dependent manner

entry into circulation [4]: did not enter the circulation
Compound: Ac-AKFSTHWAYTLK-(ε-Pal), all-D [SMOi2-17]
in vitro activity as inhibitor of the Hedgehog pathway (SMO [1]): subnanomolar range
